In US11655246B2, “Aminothiazole compounds as inhibitors of CTPS1” (STEP PHARMA S.A.S., priority 2017, dated 2023):

target: T1, human CTPS1 (Homo sapiens, UniProt P17812); assay: Human CTPS1 enzyme inhibition (ADP-Glo Max assay); format: biochemical; details: Table 18, additional potency data, 25° C., read-out: CTPS1 (Human CTPS1 Enzyme Inhibition data grouped by potency range)
T1 construct: purchased Proteros biostructures GmbH
T1 sequence (P17812 1-591): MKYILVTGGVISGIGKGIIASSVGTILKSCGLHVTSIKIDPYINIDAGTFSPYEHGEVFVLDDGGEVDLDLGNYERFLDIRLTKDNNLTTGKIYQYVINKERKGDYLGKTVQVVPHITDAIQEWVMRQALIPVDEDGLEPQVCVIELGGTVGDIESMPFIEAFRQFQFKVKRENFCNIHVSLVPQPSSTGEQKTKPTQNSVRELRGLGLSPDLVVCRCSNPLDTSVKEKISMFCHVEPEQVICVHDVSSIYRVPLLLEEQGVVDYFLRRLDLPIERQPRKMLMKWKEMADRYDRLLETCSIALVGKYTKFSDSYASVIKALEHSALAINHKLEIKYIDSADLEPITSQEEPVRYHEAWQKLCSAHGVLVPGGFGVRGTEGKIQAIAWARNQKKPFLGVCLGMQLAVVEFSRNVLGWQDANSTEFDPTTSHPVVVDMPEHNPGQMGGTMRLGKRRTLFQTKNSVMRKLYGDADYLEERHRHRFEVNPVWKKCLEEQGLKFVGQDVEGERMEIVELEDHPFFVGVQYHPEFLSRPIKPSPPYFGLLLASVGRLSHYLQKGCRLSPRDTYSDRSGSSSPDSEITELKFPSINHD
Procedure, shortened: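 ADP-Glo Max luminescence detection of ATP-to-ADP conversion by the enzyme, in 50 mM Tris, 10 mM MgCl2, 0.01% Tween-20, pH 8.0, with 2 mM L-cysteine added fresh. Enzyme preincubated with compound 10 minutes at 25° C. Percentage inhibition calculated per compound concentration.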

| Compound | IC50 |
| --- | --- |
| CCOc1cncc(-c2ccc(NC(=O)C(CC)c3csc(NS(=O)(=O)C4CC4)n3)c(OC(F)(F)F)c2)n1 (stereo not drawn) [T442] | < 100 nM |
| CCOc1cncc(-c2ccc(NC(=O)C(CC)c3csc(NS(=O)(=O)C4CC4)n3)c(OC)c2)n1 (stereo not drawn) [T443] | < 100 nM |
| CCNc1cncc(-c2ccc(NC(=O)C(CC)c3csc(NS(=O)(=O)C4CC4)n3)cc2)n1 (stereo not drawn) [T444, 2-(2-(Cyclopropanesulfonamido)thiazol-4-yl)-N-(4-(6-(ethylamino)pyrazin-2-yl)phenyl)butanamide] | < 100 nM |
| CCOc1cncc(-c2cnc(NC(=O)C(OC)c3csc(NS(=O)(=O)C4CC4)n3)c(F)c2)n1 (stereo not drawn) [T445] | < 100 nM |
| CCOc1cncc(-c2ccc(NC(=O)C(OC)c3csc(NS(=O)(=O)C4CC4)n3)nc2)n1 (stereo not drawn) [T446] | < 100 nM |
| COC(C(=O)Nc1ccc(-c2cncc(F)c2)cc1C(F)(F)F)c1csc(NS(=O)(=O)C2CC2)n1 (stereo not drawn) [T447] | < 100 nM |
| COC(C(=O)Nc1ccc(-c2cncc(C(F)(F)F)c2)cc1F)c1csc(NS(=O)(=O)C2CC2)n1 (stereo not drawn) [T448] | < 100 nM |
| CCOc1cncc(-c2ccc(NC(=O)C(OC)c3csc(NS(=O)(=O)C4CC4)n3)c(C(F)(F)F)c2)n1 (stereo not drawn) [T449] | < 100 nM |
| CCOc1cncc(-c2ccc(NC(=O)C(OC)c3csc(NS(=O)(=O)C4CC4)n3)c(Cl)c2)n1 (stereo not drawn) [T450] | < 100 nM |
| CCOc1cncc(-c2ccc(NC(=O)C(OC)c3csc(NS(=O)(=O)C4CC4)n3)c(C#N)c2)n1 (stereo not drawn) [T451] | < 100 nM |
| COC(C(=O)Nc1ccc(-c2cncc(C(F)(F)F)n2)cc1F)c1csc(NS(C)(=O)=O)n1 (stereo not drawn) [T452] | < 100 nM |
| CCOc1cncc(-c2cc(F)c(NC(=O)C(OC)c3csc(NS(=O)(=O)C4CC4)n3)c(F)c2)n1 (stereo not drawn) [T453] | < 100 nM |
| CCOc1cncc(-c2ccc(NC(=O)C(OC)c3csc(NS(=O)(=O)C4CC4)n3)c(OC(F)(F)F)c2)n1 (stereo not drawn) [T454] | < 100 nM |
| CCOc1cncc(-c2ccc(NC(=O)C(OC)c3csc(NS(C)(=O)=O)n3)cc2)n1 (stereo not drawn) [T455] | < 100 nM |
| COc1cncc(-c2ccc(N3CCC(c4csc(NS(=O)(=O)C5CC5)n4)C3=O)cc2)c1 (stereo not drawn) [T463] | 100 to 1000 nM |

Further lines, results first:

| IC50 | Compound |
| --- | --- |
| < 100 nM | CCOc1cncc(-c2ccc(NC(=O)C(c3csc(NS(=O)(=O)C4CC4)n3)N(C)C)c(F)c2)n1 (stereo not drawn) [T421, 2-(2-(Cyclopropanesulfonamido)thiazol-4-yl)-2-(dimethylamino)-N-(4-(6-ethoxypyrazin-2-yl)-2-fluorophenyl)acetamide] |
| < 100 nM | CCOc1cncc(-c2ccc(NC(=O)C(C)(C)c3csc(NS(=O)(=O)CC4CC4)n3)c(F)c2)n1 [T433] |
| < 100 nM | CCOc1cncc(-c2cnc(NC(=O)C(CCOC)c3csc(NS(=O)(=O)C4CC4)n3)c(F)c2)n1 (stereo not drawn) [T435] |
| < 100 nM | CCOc1cncc(-c2ccc(NC(=O)C(CCOC)c3csc(NS(=O)(=O)C4CC4)n3)nc2)n1 (stereo not drawn) [T436] |
| < 100 nM | COCCC(C(=O)Nc1ccc(-c2cncc(C(F)(F)F)n2)cc1)c1csc(NS(=O)(=O)C2CC2)n1 (stereo not drawn) [T437] |
| < 100 nM | CCOc1cncc(-c2cnc(NC(=O)C(CC)c3csc(NS(=O)(=O)C4CC4)n3)c(C)c2)n1 (stereo not drawn) [T438] |
| < 100 nM | CCOc1cncc(-c2ccc(NC(=O)C(CC)c3csc(NS(=O)(=O)C4CC4)n3)c(Cl)c2)n1 (stereo not drawn) [T439] |
| < 100 nM | CCOc1cncc(-c2ccc(NC(=O)C(CC)c3csc(NS(=O)(=O)C4CC4)n3)c(C#N)c2)n1 (stereo not drawn) [T440] |
| < 100 nM | CCOc1cncc(-c2ccc(NC(=O)C(CC)c3csc(NS(=O)(=O)C4CC4)n3)c(C)c2)n1 (stereo not drawn) [T441] |
